The source of these data is US7668586B2, “In vivo multiphoton diagnostic detection and imaging of a neurodegenerative disease” (Cornell Research Foundation, Inc., priority 2000, dated 2010).

Data set [1] concerns pial arteriole. The experiment in a line: Pial vessel reactivity, closed cranial window, vessel diameter measurement. The conditions noted are these: 14-month-old Tg+ (four out of five, outlier excluded); ACh 10 and 25 μM, SNP 0.5 μM superfused.
From the text: Anesthesia was induced with 2.5% halothane and maintained in 1.0% halothane in 67% N2O and 33% O2. Mice were intubated transorally, placed in a stereotaxic frame and ventilated artificially (SAR-830/P, CWE, Ardmore, Pa.). End-tidal CO2 was continuously monitored by a microcapnometer (Columbus Instruments, Columbus, Ohio). The femoral artery and vein were cannulated with a polyethylene catheter (PE-10, Intramedic, Becton Dickinson) for continuous arterial blood pressure and heart rate monitoring and for drug infusion. Alpha-chloralose (80 mg/kg i.v.) was injected and halothane was withdrawn gradually for deepening of anesthesia. […] Arterial blood gas and pH were analyzed before drug superfusion. […]
Pial vessels were visualized with a video microscope system comprised of an intravital microscope (Leitz, Germany), CCD video camera (model 1300, Cohu Inc, San Diego, U.S.A.), a camera controller (C2400, Hamamatsu Photonics, Hamamatsu, Japan), video monitor (Sony, Japan), and a video recorder (Panasonic, Japan). The images were continuously recorded on videotape. The diameter of a single pial arteriole (20-30 μm) was measured per experiment by a video width analyzer (C3161, Hamamatsu Photonics) and recorded using the MacLab data acquisition and analysis system. […]
Data set [2] can be described thus: Fluorescent angiography after tail vein injection. Conditions: injected into tail vein, at least 20 minutes prior to imaging.
Method: The tail of the animal was warmed on a heating pad to dilate the blood vessels, and approximately 0.05 ml fluorescein (25 mg/ml) in sterile PBS was injected into a tail vein of the mouse at least 20 minutes prior to imaging.
Data set [3] has as its target amyloid plaques (Homo sapiens, UniProt P05067). In words: In vivo multiphoton imaging of thioflavine S-positive amyloid. Set-up: species or system Tg2576 mouse. The conditions noted are these: dilute solution applied to brain, 750 nm 2-photon excitation.

Chain of amyloid plaques (P05067 672-711 limits assumed): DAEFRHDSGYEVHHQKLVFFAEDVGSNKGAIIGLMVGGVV

With `CC(=O)OCC[N+](C)(C)C` [ACh, Acetylcholine], the “vessel dilation relative to control (non-transgenic) animals” value in data set [1] is given as “about 25%”.

As to `O=C1OC2(c3ccc(O)cc3Oc3cc(O)ccc32)c2ccccc21` [fluorescein], the “crossing of the blood-brain barrier” value in data set [2] was “did not cross the blood-brain barrier”.

As to Thioflavine S, in data set [3], the “depth to the surface of the cortex at which plaques were visualized” value is on record as “up to 150 μm”.
